Like-named read-outs stand apart in the source and are kept apart here. Residues, ends and D or L forms follow the SMILES beside them.
What was measured:
S. aureus (ATCC 19636) = format: cell-based, Staphylococcus aureus
In short: (§1)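 Mid-log cultures grown in Mueller–Hinton broth were diluted to 10^6 CFU/ml in 10 mM sodium phosphate, 50 mM NaCl, pH 7.2, mixed with serially diluted HBc ARD peptides, and held 3 hours at 37°C without shaking. Survivors were plated on Mueller–Hinton agar overnight at 37°C to define MBC; triplicates.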

S. aureus (ATCC 25923) = format: cell-based, Staphylococcus aureus
In short: as §1

S. aureus (ATCC 29213) = format: cell-based, Staphylococcus aureus
In short: as §1

C. albicans (ATCC 10231) = format: cell-based, Candida albicans
Procedure: The antimicrobial activities of HBc ARD peptides were tested using a number of bacterial strains from ATCC, including Pseudomonas aeruginosa Migula strain (ATCC 27853, ampicillin-resistant), Pseudomonas aeruginosa Migula strain (ATCC 9027, ampicillin-resistant), Klebsiella pneumoniae strain (ATCC 17593), Escherichia coli strain (ATCC 25922), Staphylococcus aureus subsp. strain (ATCC 25923, methicillin-resistant), Staphylococcus aureus subsp. strain (ATCC 29213, methicillin-resistant), Staphylococcus aureus subsp. strain (ATCC 19636, methicillinresistant), and Candida albicans strain (ATCC 10231).
All peptides were purchased from Yao-Hong Biotechnology Inc. (Taipei, Taiwan). Vendors provided data of peptide characterizations, including HPLC and Mass (data not shown). Antimicrobial activity was determined as described with some modifications as detailed below. Bacteria were grown overnight in Mueller–Hinton broth (Difco) at 37°C, and during the mid-logarithmic phase, bacteria were diluted to 10^6 CFU (colony formation unit)/ml in phosphate buffer (10 mM sodium phosphate and 50 mM sodium chloride, pH 7.2). Peptides were serially diluted in the same buffer. Fifty microliter (µl) of bacteria was mixed with fifty µl of peptides at varying concentrations followed by incubation at 37°C for 3 hours without shaking. At the end of incubation, bacteria were placed on Mueller-Hinton broth agar plates, and allowed growth at 37°C overnight for measurement of minimal bactericidal concentration (MBC). […] All peptides were tested in triplicate.

Vero cells = experiment: Cytotoxicity, MTT assay; format: cell-based, monkey; settings: 1 hour at 37°C; HBc147-183 at 100 µM, melittin at 3.125 µM; triplicates
Procedure: Cytotoxicity was measured for HepG2, Huh7, HEK293, and Vero cells by MTT assay. Cells were seeded at 10^4 cells/well in a 96-well plate and serial dilutions of peptides were added into each well. PBS was used as a negative control and melittin was used as a positive control. After 1 hour of incubation, the medium were replaced by fresh medium containing 10% MTT solution (Promega), and the plate was incubated for 4 hours in 5% CO2 at 37°C. The absorbance at the wavelength of 595 nm was measured by an ELISA reader (Bio-Rad model 680).

ICR mice = experiment: Acute in vivo toxicity; parameters: species or system mouse; settings: three-week old male ICR mice, 7 days, n = 5
Procedure: Three-week old male ICR mice (19 to 21 g) were purchased from BioLASCO (Taiwan). Overnight culture of bacteria in BHI broth (Difco) was subcultured in fresh BHI broth to log phase. Inoculums were diluted in BHI broth to indicated densities. To test the acute toxicity of ARD peptide in vivo, ICR male mice were inoculated intraperitoneally (i.p.) with 10 and 20 mg/kg HBc147-183 in PBS, respectively. Each group contained 5 mice. After peptide injection, the number of dead mice was recorded daily for 7 days post-injection. To test the antimicrobial activity of the ARD peptide in vivo, all mice were inoculated i.p. with Staphylococcus aureus ATCC 19636 (4×10^6 CFU/mouse) in BHI broth. Peptide HBc147-183 (10 mg/kg) was administered i.p. at 1, 1.5 and 2 hours post-inoculation. PBS (10 ml/kg) control was administered at 1 hour post-inoculation. […] Mortality was monitored daily for 7 days post-inoculation. […] The mice were anesthetized first before transferring to the IVIS imaging system (IVIS spectrum), and luminescence was measured with an exposure time of 1 minutes or less. The image system measured the number of photons and translated the data to false color images that depicted the region of strong luminescence with red, moderate luminescence with yellow and green, and mild luminescence with blue. […] Total flux (RLU) of region of interest (ROI) was quantified by the IVIS imaging software.

[1] = methicillin-resistant strain, 3 h at 37°C in phosphate buffer pH 7.2, triplicate

CC(C)[C@H](NC(=O)[C@@H](NC(=O)[C@@H](N)[C@@H](C)O)C(C)C)C(=O)N[C@@H](CCCNC(=N)N)C(=O)N[C@@H](CCCNC(=N)N)C(=O)N[C@@H](CCCNC(=N)N)C(=O)NCC(=O)N[C@@H](CCCNC(=N)N)C(=O)N[C@@H](CO)C(=O)N1CCC[C@H]1C(=O)N[C@@H](CCCNC(=N)N)C(=O)N[C@@H](CCCNC(=N)N)C(=O)N[C@@H](CCCNC(=N)N)C(=O)N[C@H](C(=O)N1CCC[C@H]1C(=O)N[C@@H](CO)C(=O)N1CCC[C@H]1C(=O)N[C@@H](CCCNC(=N)N)C(=O)N[C@@H](CCCNC(=N)N)C(=O)N[C@@H](CCCNC(=N)N)C(=O)N[C@@H](CCCNC(=N)N)C(=O)N[C@@H](CO)C(=O)N[C@@H](CCC(N)=O)C(=O)N[C@@H](CO)C(=O)N1CCC[C@H]1C(=O)N[C@@H](CCCNC(=N)N)C(=O)N[C@@H](CCCNC(=N)N)C(=O)N[C@@H](CCCNC(=N)N)C(=O)N[C@@H](CCCNC(=N)N)C(=O)N[C@@H](CO)C(=O)N[C@@H](CCC(N)=O)C(=O)N[C@@H](CO)C(=O)N[C@@H](CCCNC(=N)N)C(=O)N[C@@H](CCC(=O)O)C(=O)N[C@@H](CO)C(=O)N[C@@H](CCC(N)=O)C(=O)N[C@@H](CS)C(=O)O)[C@@H](C)O [HBc147-183] (H-TVVRRRGRSPRRRTPSPRRRRSQSPRRRRSQSRESQC-OH; N-terminus and C-terminus assumed)
MBC against S. aureus (S. aureus (ATCC 19636); ATCC 19636, 3 h): around 4 µM | Antimicrobial activity, MBC (S. aureus (ATCC 19636); ATCC 19636, 3 h, pH 7.2): 4 µM | Antimicrobial activity, MBC (S. aureus (ATCC 19636); [1]): 18.36 µg/mL | Antimicrobial activity, MBC (S. aureus (ATCC 25923); ATCC 25923, 3 h, pH 7.2): 4 µM | Antimicrobial activity, MBC (S. aureus (ATCC 25923); [1]): 18.36 µg/mL | Antimicrobial activity, MBC (S. aureus (ATCC 29213); ATCC 29213, 3 h, pH 7.2): 4 µM | Antimicrobial activity, MBC (S. aureus (ATCC 29213); [1]): 18.36 µg/mL | Antimicrobial activity, MBC (C. albicans (ATCC 10231); ATCC 10231, 3 h, pH 7.2): ~8 µM | Antimicrobial activity, MBC (C. albicans (ATCC 10231); fungi, 3 h at 37°C in phosphate buffer pH 7.2, triplicate): ~36.7 µg/mL | Cell viability / cytotoxicity (MTT) (Vero cells): low level of cytotoxicity | Survival after peptide injection (in vivo toxicity) (ICR mice; 10 mg/kg i.p.): All mice were alive | Survival after peptide injection (in vivo toxicity) (ICR mice; 20 mg/kg i.p.): All mice were alive

From publication PMC3681751, “Identification of a Novel Antimicrobial Peptide from Human Hepatitis B Virus Core Protein Arginine-Rich Domain (ARD)” (PLoS Pathogens, 2013)
